Assay results taken from publication PMC5794004 (Bioorganic & medicinal chemistry, 2017).
Values belong to the compound of their own block, whether it stands above or below them.

Key:
[1] = biological target: hCB2 receptors (Homo sapiens, UniProt P34972); assay: CB2 receptor radioligand binding, [3H]CP55,940, CHO-K1 hCB2 membranes; conditions: for interaction with CB2R: up to 100 μM
[2] = biological target: T1, MAGL (Homo sapiens, UniProt Q99685); assay: MAGL activity assay, U937 cell homogenate; format: biochemical
T1 sequence (Q99685 1-303): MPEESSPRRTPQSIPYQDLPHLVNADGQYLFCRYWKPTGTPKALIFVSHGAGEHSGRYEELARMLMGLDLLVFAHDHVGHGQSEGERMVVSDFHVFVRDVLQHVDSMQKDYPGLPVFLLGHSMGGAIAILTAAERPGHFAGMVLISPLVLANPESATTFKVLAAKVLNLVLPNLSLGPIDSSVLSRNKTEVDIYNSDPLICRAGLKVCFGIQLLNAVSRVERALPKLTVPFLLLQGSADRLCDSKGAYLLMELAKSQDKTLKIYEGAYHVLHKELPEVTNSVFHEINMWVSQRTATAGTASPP

[3] = test system: AEA uptake; assay: AEA uptake assay, intact U937 cells; format: cell-based
[4] = acute feeding model; cited from earlier work
[5] = biological target: hCB1R (Homo sapiens, UniProt P21554); assay: CB1 receptor radioligand binding, [3H]CP55,940, CHO-K1 hCB1R membranes; conditions: for increase of [3H]CP55,940 binding at CB1R: maximal increase over vehicle
Chain of hCB1R (P21554 whole entry): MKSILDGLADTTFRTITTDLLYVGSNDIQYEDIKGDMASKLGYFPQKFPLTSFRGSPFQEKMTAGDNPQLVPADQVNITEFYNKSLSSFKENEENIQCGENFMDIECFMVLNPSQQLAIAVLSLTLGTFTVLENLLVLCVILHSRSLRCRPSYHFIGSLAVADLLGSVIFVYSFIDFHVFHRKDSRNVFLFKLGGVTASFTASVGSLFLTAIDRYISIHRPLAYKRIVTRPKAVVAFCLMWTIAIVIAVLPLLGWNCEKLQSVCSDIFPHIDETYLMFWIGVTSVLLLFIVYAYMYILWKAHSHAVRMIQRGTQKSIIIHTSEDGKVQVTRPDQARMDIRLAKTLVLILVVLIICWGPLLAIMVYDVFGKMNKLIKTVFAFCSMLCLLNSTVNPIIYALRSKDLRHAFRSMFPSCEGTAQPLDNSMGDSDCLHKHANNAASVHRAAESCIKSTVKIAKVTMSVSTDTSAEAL

Chain of hCB2 receptors (P34972 whole entry): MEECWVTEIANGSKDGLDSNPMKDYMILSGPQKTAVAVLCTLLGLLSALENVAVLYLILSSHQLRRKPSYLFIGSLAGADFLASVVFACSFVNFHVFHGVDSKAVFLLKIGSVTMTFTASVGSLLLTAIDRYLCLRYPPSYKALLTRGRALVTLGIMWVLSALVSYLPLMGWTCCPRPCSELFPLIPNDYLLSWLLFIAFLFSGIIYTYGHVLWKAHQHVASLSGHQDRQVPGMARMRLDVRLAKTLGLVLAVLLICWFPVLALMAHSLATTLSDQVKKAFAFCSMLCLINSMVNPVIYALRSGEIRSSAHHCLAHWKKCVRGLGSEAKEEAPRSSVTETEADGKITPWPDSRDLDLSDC

interaction with CB2R [1]: did not significantly interact
Compound: O=C(Nc1ccc(Cl)cc1)Nc1cccc(Nc2cccc(N3CCCC3)c2)c1 [FG45a, 1-(4-Chlorophenyl)-3-(3-{[3-(pyrrolidin-1-yl)phenyl]amino}phenyl)urea]

binding to CB2R ([1]; up to 10 μM): did not show any significant binding
MAGL result in words [2]: negative
increase of [3H]CP55,940 binding at CB1R [5]: 15–20%
Compound: O=C(Nc1ccc(Cl)cc1)Nc1cccc(-c2cccc(N3CCCC3)n2)c1 [PSNCBAM-1, 1-(4-Chlorophenyl)-3-{3-[6-(pyrrolidin-1-yl)pyridin-2-yl]phenyl}urea]
AEA cell uptake result in words [3]: negative
food intake and body weight [4]: decrease food intake and body weight

increase of [3H]CP55,940 binding at CB1R [5]: 15–20%
Compound: O=C(Nc1ccc(Cl)cc1)Nc1cccc(-c2cccc(N3CCCC3)c2)c1 [SC4a, 1-(4-Chlorophenyl)-3-[3′-(pyrrolidin-1-yl)biphenyl-3-yl]urea]

Ki [1]: ~50 µM
binding to CB1R ([5]; at 100 μM): approx. 10%
influence on [3H]CP55,940 binding to CB1R ([5]; up to 10 μM): does not influence
Compound: O=C(Cc1ccc(Cl)cc1)Nc1cccc(-c2cccc(N3CCCC3)c2)c1 [SC33, 2-(4-Chlorophenyl)-N-[3′-(pyrrolidin-1-yl)biphenyl-3-yl]acetamide]

interaction with CB2R [1]: did not significantly interact
Compound: O=C(Nc1ccc(Cl)cc1)Nc1cccc(Nc2cccc(N3CCCC3)n2)c1 [SN15b]
